How the values were obtained:
[1] = test system: human visceral preadipocytes; assay: in vitro; settings: for Average RZL-012 and collagenase induced cell death (% vs untreated cells): RZL12 0 μM, 24 h of incubation
Description: Human visceral preadipocytes were seeded in 96-well white clear bottom plates at 10,000 cells per well in 100 μl pre-adipocyte medium and incubated overnight at 37° C. 5% CO2. On the following day, adipogenic differentiation was induced by addition of 100 μl/well differentiation medium and incubation continued for 5 days. Adipogenic differentiation was verified by microscopic evaluation, addition of adipored reagents and fluorescent measurement at Ex485 nm/Em572 nm. […] Staurosporine (1 μM) and 0.2% DMSO were used as controls. Plates were incubated at 37° C. 5% CO2 for 2, 6 and 24 hours. Following incubation, cytotoxicity was measured using Cell Titer Glo 2.0 (Promega).
Test Item RZL-12 (1-300 μM) was prepared on the day of the testing as 150 mM stock solutions in DMSO. The 150 mM represents a 500×stock of the highest desired tested concentration. The 150 mM stock solution was first serially diluted in DMSO to acquire 500×stock solutions for each of the RZL-012 concentrations. The 500×stock solutions were then diluted 1:25 in medium to acquire 20×intermediate stock solutions. Finally, the 20×intermediate stock solutions were further diluted 1:20 in the assay (on the plate) that included seeded cells.
The 600 μM represents a 20× stock of the highest desired tested concentration. […] Finally, the 20×intermediate stock solutions were further diluted 1:20 in the assay plate that included seeded cells.
Human visceral pre-adipocytes (HPrAD-vis): HPrAD-vis cells (Lonza cat #PT-5005) were thawed at 37° C. and transferred into 50 ml tubes containing pre-adipocytes PGM-2 growth medium (PBM-2, 10% FBS, 1-glutamine, GA-1000). Cells were centrifuged at 300 g for 10 minutes, the supernatant was removed (Leaving about 1 ml of wash medium for not disrupting the cells) and 2 ml fresh PGM-2 medium was added. After resuspension, cells were counted and seeded in T-75 and T25 flasks at a density of 9,000 cells/cm^2 ([…], 225,000 cells/T25 flask). Medium was changed every 2-3 days until reached confluence of 70%.
Cells were sub-cultured only once, as soon as they reached 70% confluence. For this purpose, the culture medium of each flask was removed and cells were washed once with 5 ml PBS. The flask was shaken to ensure that the entire surface was covered and the PBS was removed. Then, 3 ml/T75 flask or 1 ml/T25 flask of fresh dedicated Trypsin/EDTA solution (from Lonza) was added and the flasks were incubated for 3-4 minutes at RT until ˜90% cells were detached. The Trypsin/EDTA solution was then neutralized by addition of 6 ml/T75 flask or 3 ml/T25 flask of full PGM-2 growth medium. Cells were collected in 50 ml tubes and centrifuged 10 minutes at 300 g. The supernatant was removed and the cells were resuspended in 3 ml fresh medium. Cells were then counted using a haemacytometer slide after being diluted 1:2 in trypan blue (SIGMA). For sub-culturing, cells were seeded in new T75 flasks at a density of 9,000 cells/cm^2 containing 15 ml fresh growth medium. Alternatively, the cells were seeded in 96-well culture plates at a density of 10,000 cells/well for the cell treatments.
HPrAD-vis cells: HPrAD-vis passaged once were seeded in 96-well plates as described above (10000cells/well in 100 μl medium) and allowed to settle overnight at 37° C., 5% CO2. Following day, adipogenic differentiation was induced by addition of 100 μl/well differentiation medium and incubated for 5 days. Adipogenic differentiation was verified by microscopic evaluation, addition of adipored reagents and fluorescent measurement at Ex485 nm/Em572 nm. In the morning of day 6, test and reference items were prepared as described above. Cells' medium was replaced with 90 μl fresh differentiation medium. […] Staurosporine (1 μM) and 0.2% DMSO were used as controls. Plates were incubated at 37° C. 5% CO2 for 2, 6 and 24 hours. Following incubation, cell viability was determined using the CellTiter-Gg® viability reagent (Promega) with reading of plates for luminescence. […]

[2] = test system: Wi-38 fibroblasts; assay: Cell Titer Glo 2.0 cytotoxicity assay on Wi-38 fibroblasts; assay type: cell-based; settings: cytotoxic reference control; after 24 hours of incubation

Compound CN[C@@H]1C[C@H]2O[C@@](C)([C@@H]1OC)n1c3ccccc3c3c4c(c5c6ccccc6n2c5c31)C(=O)NC4 [staurosporine, reference compound] has a maximal cell death ([1]; 24 h, 1 µM) of 89% and a maximal cell death [2] of 89%.

Collagenase was tested, and the “Average RZL-012 and collagenase induced cell death (% vs untreated cells)” value ([1]; Collagenase 0.1 μM) was 7.28%, the “Average RZL-012 and collagenase induced cell death (% vs untreated cells)” value ([1]; Collagenase 0.3 μM) was 6.53% and the “Average RZL-012 and collagenase induced cell death (% vs untreated cells)” value ([1]; Collagenase 1 μM) was 25.57%. The “Average RZL-012 and collagenase induced cell death (% vs untreated cells)” value ([1]; Collagenase 3 μM) was 33.27%, the “Average RZL-012 and collagenase induced cell death (% vs untreated cells)” value ([1]; Collagenase 10 μM) was 65.68% and the “Average RZL-012 and collagenase induced cell death (% vs untreated cells)” value ([1]; Collagenase 30 μM) was 79.93%. For the same compound, the “concentrations at which the cytotoxic effect was observed” value ([1]; at all time points (2, 6, 24 h)) was greater than 3 µM, the “effect of collagenase on RZL-012 cytotoxicity” value ([1]; collagenase 10 μM and 30 μM, 2 h time point) was “attenuated RZL-012 cytotoxicity” and the “effect of collagenase added together with RZL-012 on cell cytotoxicity” value ([1]; collagenase 0.1-1 μM, adipocytes, 6 h and 24 h time points, vs each compound alone) was “attenuate cell cytotoxicity”.
